Reference: patent US20260137079A1, “DISPENSER AND METHOD OF USE THEREOF” (priority 2019, published 2026)

Experiment: Suppression of recrystallization of actives that are solid at room temperature
Type: physicochemical
Conditions: glycol ether solvent with Transfluthrin (TFT)

With `COCC(C)OCC(C)OC` (stereo not shown) [DMM, Dipropylene glycol Dimethyl Ether] the “effect on recrystallization of actives solid at room temperature” value was “suppress the recrystallization”.
